Measurements: PMC10900215 (JACS Au, 2024)
Values joined by “and” are separate entries in the source; they are usually repeats but may differ in a detail not shown here. Equal values may be shown once.

Experiments:
METTL3-14 = METTL3-14 (Homo sapiens, UniProt Q86U44); assay: biochemical; design: with the full-length complex, the recombinant complex construct pFastBacDual-StrepII-GFP-TEV-METTL3-His-TEV-METTL14 was expressed; StrepII (N); GFP (N); TEV site (N); made in house; host or cells: baculovirus/Sf9 insect cells; conditions: inhibition of catalytic activity of METTL3-14, binary FRET assay
Sequence of METTL3-14 (Q86U44 whole entry): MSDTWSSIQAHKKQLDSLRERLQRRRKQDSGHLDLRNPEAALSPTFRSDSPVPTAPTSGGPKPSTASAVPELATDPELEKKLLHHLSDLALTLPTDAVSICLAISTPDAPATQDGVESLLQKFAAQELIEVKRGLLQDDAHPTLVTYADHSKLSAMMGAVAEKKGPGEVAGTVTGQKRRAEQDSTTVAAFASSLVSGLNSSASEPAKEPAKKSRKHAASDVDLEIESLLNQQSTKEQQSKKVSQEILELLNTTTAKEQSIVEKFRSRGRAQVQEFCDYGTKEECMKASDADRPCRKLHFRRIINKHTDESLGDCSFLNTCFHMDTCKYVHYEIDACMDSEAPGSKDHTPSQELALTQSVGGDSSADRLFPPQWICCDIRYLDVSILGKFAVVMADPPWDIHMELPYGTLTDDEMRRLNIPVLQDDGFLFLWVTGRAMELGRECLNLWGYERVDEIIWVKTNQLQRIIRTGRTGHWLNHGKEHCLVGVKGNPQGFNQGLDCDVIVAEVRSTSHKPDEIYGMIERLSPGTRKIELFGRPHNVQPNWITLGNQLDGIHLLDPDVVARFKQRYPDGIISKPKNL
Sequence of METTL3-14 (Q9HCE5 whole entry, further chain): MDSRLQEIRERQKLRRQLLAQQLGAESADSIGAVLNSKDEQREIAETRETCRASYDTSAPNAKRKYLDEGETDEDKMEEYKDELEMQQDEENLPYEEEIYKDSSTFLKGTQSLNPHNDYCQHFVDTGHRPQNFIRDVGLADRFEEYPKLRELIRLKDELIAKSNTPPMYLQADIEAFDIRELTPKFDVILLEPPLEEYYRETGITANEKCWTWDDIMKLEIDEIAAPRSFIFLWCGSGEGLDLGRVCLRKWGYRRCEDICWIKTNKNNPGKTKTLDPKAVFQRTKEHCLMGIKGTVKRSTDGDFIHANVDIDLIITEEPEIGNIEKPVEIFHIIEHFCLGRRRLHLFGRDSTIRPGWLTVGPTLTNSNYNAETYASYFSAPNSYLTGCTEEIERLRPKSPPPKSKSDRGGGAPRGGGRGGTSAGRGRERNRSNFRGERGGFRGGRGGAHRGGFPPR
Excerpt: For determining the half maximal inhibitory concentration (IC50) with the full-length complex, the recombinant complex construct pFastBacDual-StrepII-GFP-TEV-METTL3-His-TEV-METTL14 was expressed using the baculovirus/Sf9 insect cell expression system and purified as described previously.[21]
The inhibitory potencies of the PROTACs for METTL3 were quantified by a homogeneous time-resolved fluorescence (HTRF)-based enzyme assay as previously described.[40]

[1] = target: T1, ternary complex CRBN/PROTAC/METTL3–14 (Homo sapiens, UniProt Q86U44+Q96SW2); assay: FRET-based ternary complex formation assay (TCFA); type: binding; conditions: for TCFA amplitude (mean ± SEM): Hook curve amplitude, fraction of the maximum of compound 16; for ECmax (nM) ± SD: PROTAC concentration at the maximum of the signal in the TCFA; for ECmax: TCFA, peak of the Hook curve
T1 construct: methyltransferase domains (MTD) of METTL3 (residues 354–580); His6 (N, cleaved yes); made in house; host or cells: METTL3-MTD/METTL14-MTD: baculovirus/Sf9; CRBN-TBD: E. coli Rosetta (DE3), co-expressed with BirA
T1 sequence (Q86U44 354-580): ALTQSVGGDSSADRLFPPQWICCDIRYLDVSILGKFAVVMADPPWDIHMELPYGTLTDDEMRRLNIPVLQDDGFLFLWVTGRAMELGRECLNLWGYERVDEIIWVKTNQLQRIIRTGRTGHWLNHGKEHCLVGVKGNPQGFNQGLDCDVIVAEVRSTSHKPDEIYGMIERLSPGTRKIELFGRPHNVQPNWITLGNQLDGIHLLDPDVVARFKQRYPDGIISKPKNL
T1 sequence (Q9HCE5 107-395 partner limits assumed): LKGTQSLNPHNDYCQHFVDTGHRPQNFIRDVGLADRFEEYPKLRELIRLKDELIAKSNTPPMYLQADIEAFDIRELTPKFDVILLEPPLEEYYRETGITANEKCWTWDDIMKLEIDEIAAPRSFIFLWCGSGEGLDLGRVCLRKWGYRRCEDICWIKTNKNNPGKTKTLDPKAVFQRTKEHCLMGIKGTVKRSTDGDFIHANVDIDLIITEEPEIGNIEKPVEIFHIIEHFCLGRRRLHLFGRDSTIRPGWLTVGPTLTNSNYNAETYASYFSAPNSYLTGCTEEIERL
T1 sequence (Q96SW2 318-442): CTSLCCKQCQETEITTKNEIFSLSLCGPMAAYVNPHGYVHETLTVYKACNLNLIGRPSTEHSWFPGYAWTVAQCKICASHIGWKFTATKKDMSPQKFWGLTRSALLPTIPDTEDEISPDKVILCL
Protocol: For protein expression, suspension cultures of Sf9 cells in […] medium (Thermo Fisher) were infected at a density of 2 × 10^6 mL^–1. […] The complex was further purified by size exclusion chromatography using a Superdex 200 Increase 10/300 GL column (Cytiva) in 20 mM Tris-Cl, pH 8.0, and 200 mM KCl. The complex was aliquoted and flash-frozen in liquid nitrogen and stored at −80 °C until further use.
Ternary complex formation between the PROTACs, METTL3, and CRBN was quantified by a homogeneous time-resolved fluorescence (HTRF)-based enzyme assay. […] Curves of titrations with the PROTACs were plotted in GraphPad Prism 9.5.1 and fitted with a Gaussian function, if appropriate. […] CRBN^TBD-Avi(biotin) was used at a final concentration of 10 nM. […] Anti-GST Eu^3+-labeled antibody (Cisbio, 61GSTKLB) was used at a final concentration of 0.8 nM. The final reaction volume was 20 μL in 50 mM HEPES (pH 7.5), 150 mM NaCl, 0.1% BSA, 100 mM KF. […] The ratio of the emissions [drawing 1] was considered for further analysis. […] The concentrations resulting in the maximum signal (ECmax) and the amplitudes of the Hook curves were determined from the parameters of the Gaussian fit (if appropriate) or as the coordinates of the data-point with the highest TR-FRET signal.
For the ternary complex formation assay (TCFA), one of the protein partners must have a GST-tag and the other a biotin-tag.

METTL3 = target: T2, METTL3 (Homo sapiens, UniProt Q86U44); assay: Cellular degradation assay (Western blot), METTL3 in MOLM-13; type: cell-based; conditions: MOLM-13, 24 h, 2 μM compound
T2 construct: METTL3–14 degradation up to 70% of the endogenous level; endogenous in cells; host or cells: MOLM-13, PC3, DU145
T2 sequence (Q86U44 2-580 limits assumed): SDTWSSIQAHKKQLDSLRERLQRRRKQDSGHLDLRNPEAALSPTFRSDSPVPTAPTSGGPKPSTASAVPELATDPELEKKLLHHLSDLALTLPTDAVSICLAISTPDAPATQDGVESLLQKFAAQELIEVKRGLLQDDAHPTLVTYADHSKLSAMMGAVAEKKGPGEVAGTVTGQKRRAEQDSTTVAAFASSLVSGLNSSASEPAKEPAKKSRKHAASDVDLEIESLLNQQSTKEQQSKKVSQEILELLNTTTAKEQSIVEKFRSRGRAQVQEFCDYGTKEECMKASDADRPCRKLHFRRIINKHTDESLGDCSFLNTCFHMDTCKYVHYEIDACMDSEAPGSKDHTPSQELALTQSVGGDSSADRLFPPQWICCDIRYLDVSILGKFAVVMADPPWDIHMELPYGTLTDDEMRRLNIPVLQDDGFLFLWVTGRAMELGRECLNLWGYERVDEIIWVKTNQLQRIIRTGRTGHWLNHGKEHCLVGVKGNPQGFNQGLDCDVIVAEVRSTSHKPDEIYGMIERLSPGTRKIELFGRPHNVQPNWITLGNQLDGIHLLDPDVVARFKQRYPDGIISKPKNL
T2 sequence (Q9HCE5 whole entry partner): as the sequence (Q9HCE5 whole entry, further chain) above
Protocol: (§1) MOLM-13, NOMO-1, THP-1, Kasumi-1, PC3, and DU145 cell lines were obtained from DSMZ-German Collection of Microorganisms and Cell Cultures GmbH. Cells were cultured in RPMI 1640 medium (11875093, Thermo Fisher Scientific) containing 10% FBS (16140071, Thermo Fisher Scientific) and 1% penicillin-streptomycin (15140122, Thermo Fisher Scientific) in 5% CO2 at 37 °C in a humidified incubator, with maintained cell densities at 0.5–1 × 10^6 cells/mL. All cell lines were tested negative for mycoplasma contamination (PCR-based assay by Microsynth, Switzerland).
(§2) METTL3 (and METTL14) protein degradation was monitored by Western blot. Cells were treated with the indicated concentration of PROTACs or DMSO control (0.1% (v/v)) for 24h, 37 °C with 5% CO2. Samples were then collected and lysed with RIPA buffer with added protease inhibitors (11697498001, Roche). After SDS-PAGE, proteins were transferred to a nitrocellulose membrane, blocked (with 5% milk, 0.5% BSA in TBST buffer), and incubated overnight with primary antibodies. The following antibodies were used: GAPDH (no. 2118, Cell Signaling, 1:4000), β-actin (ab8226, Abcam, 1:2000), METTL3 (ab195352, Abcam, 1:1000), and METTL14 (ab220031, Abcam, 1:1000). Membranes were scanned using an LI-COR Odyssey DLx imager after incubation with appropriate secondary antibodies (antimouse IgG IRDye 680RD (926–68072, LI-COR, 1:10000) and goat anti-Rabbit IgG IRDye 800CW (926–32211, LI-COR, 1:10000)). Densitometry was performed in Image Studio Lite software and analyzed in GraphPad Prism 9.

METTL14 = assay: Cellular degradation assay (Western blot), METTL14 in MOLM-13; type: cell-based, human; conditions: MOLM-13, 24 h, 2 μM compound
Protocol: as §1, §2

[2] = Cell viability assay (CellTiter-Glo) on MOLM-13; type: cell-based; conditions: human, MOLM-13 cells, average of two biological replicates; for viability at 72 h, […]: 2.5 µM
Protocol: as §1
Cell viability was determined using a CellTiter-Glo luminescent cell viability assay (Promega) based on the detection of ATP according to the manufacturer’s instructions. 100 μL of the reagent was added to each well and incubated for 10 min at room temperature. […] Background luminescence value was obtained from wells containing the CellTiter-Glo reagent and medium without cells. The resulting data was analyzed in GraphPad Prism 9.

| Structure (SMILES) | IC50 (METTL3-14) [nM] | TCFA amplitude (mean ± SEM) [1] | ECmax (nM) ± SD [1] | ECmax [1] [µM] | MOLM-13 West. blot at 24h 2 μM comp conc. Degradation (%) of METTL3 (METTL3) | MOLM-13 West. blot at 24h 2 μM comp conc. Degradation (%) of METTL14 (METTL14) | viability at 72 h, 0.6 µM [2] [%] | viability at 72 h, 1.25 µM [2] [%] | viability at 72 h, […] [2] [%] | viability at 72 h, 5 µM [2] [%] | viability at 72 h, 10 µM [2] [%] |
| --- | --- | --- | --- | --- | --- | --- | --- | --- | --- | --- | --- |
| CC1(C)CCN(Cc2ccc(N3CC(=O)NC4(CCN(c5cc(NCCCNC(=O)CCOCCOCCNc6cccc7c6C(=O)N(C6CCC(=O)NC6=O)C7=O)ncn5)CC4)C3)cc2)CC1 (centres unmarked) [Compound 1] | 2470 ± 790 | 0.03 | 6800 (n = 1) nM | 6.8 | / ^a (Degradation <10% or stabilization) | / ^a (Degradation <10% or stabilization) |  |  |  |  |  |
| CC1(C)CCN(Cc2ccc(N3CC(=O)NC4(CCN(c5cc(NCCCNC(=O)CCOCCOCCOCCNc6cccc7c6C(=O)N(C6CCC(=O)NC6=O)C7=O)ncn5)CC4)C3)cc2)CC1 (centres unmarked) [Compound 2] | 1060 ± 220 | 0.3 ± 0.1 | 2800 ± 280 nM | 2.8 | / (Degradation <10% or stabilization) | / (Degradation <10% or stabilization) |  |  |  |  |  |
| CC1(C)CCN(Cc2ccc(N3CC(=O)NC4(CCN(c5cc(NCCCNC(=O)CCOCCOCCOCCOCCNc6cccc7c6C(=O)N(C6CCC(=O)NC6=O)C7=O)ncn5)CC4)C3)cc2)CC1 (centres unmarked) [Compound 3] | 590 ± 130 | 0.3 ± 0.2 | 1900 (n = 1) nM | 1.9 | / (Degradation <10% or stabilization) | / (Degradation <10% or stabilization) |  |  |  |  |  |
| CC1(C)CCN(Cc2ccc(N3CC(=O)NC4(CCN(c5cc(NCCCNC(=O)CCOCCOCCOCCOCCOCCNc6cccc7c6C(=O)N(C6CCC(=O)NC6=O)C7=O)ncn5)CC4)C3)cc2)CC1 (centres unmarked) [Compound 4] | 640 ± 120 | 0.4 | 2000 (n = 1) nM | 2.0 | / (Degradation <10% or stabilization) | / (Degradation <10% or stabilization) |  |  |  |  |  |
| CC1(C)CCN(Cc2ccc(N3CC(=O)NC4(CCN(c5cc(NCCCNC(=O)CCCCCCCCNc6cccc7c6CN(C6CCC(=O)NC6=O)C7=O)ncn5)CC4)C3)cc2)CC1 (centres unmarked) [Compound 5] | 260 ± 30 | 0.7 ± 0.1 | 660 ± 20 nM |  | / (Degradation <10% or stabilization) | / (Degradation <10% or stabilization) |  |  |  |  |  |
| CC1(C)CCN(Cc2ccc(N3CC(=O)NC4(CCN(c5cc(NCCCNC(=O)CCCCCCCCCCNc6cccc7c6CN(C6CCC(=O)NC6=O)C7=O)ncn5)CC4)C3)cc2)CC1 (centres unmarked) [Compound 6] | 520 ± 60 | 0.4 | 3600 (n = 1) nM |  | / (Degradation <10% or stabilization) | / (Degradation <10% or stabilization) |  |  |  |  |  |
| CC1(C)CCN(Cc2ccc(N3CC(=O)NC4(CCN(c5cc(NCCCNC(=O)CCCCCCCCCCCCCCNc6cccc7c6CN(C6CCC(=O)NC6=O)C7=O)ncn5)CC4)C3)cc2)CC1 (centres unmarked) [Compound 7] | 1220 ± 90 | 0.1 | 5300 (n = 1) nM |  | / (Degradation <10% or stabilization) | / (Degradation <10% or stabilization) |  |  |  |  |  |
| CC1(C)CCN(Cc2cc(F)c(N3CC(=O)NC4(CCN(c5cc(NCC6CCN(C(=O)CNc7cccc8c7C(=O)N(C7CCC(=O)NC7=O)C8=O)CC6)ncn5)CC4)C3)cc2F)CC1 (centres unmarked) [Compound 21] |  | 1.3 ± 0.1 | 60 ± 30 nM | 0.06 | 21% and 21 ± 9% | 23 ± 9% | 104 | 105 | 110 | 110 | 102 |
| CC1(C)CCN(Cc2cc(F)c(N3CC(=O)NC4(CCN(c5cc(NCc6ccc(N7CCN(c8cccc9c8C(=O)N(C8CCC(=O)NC8=O)C9=O)CC7)cc6)ncn5)CC4)C3)cc2F)CC1 (centres unmarked) [Compound 34] |  | 0.2 ± 0.1 | 120 ± 30 nM |  |  | < 10% | 95.8 | 97.3 | 96.3 | 99.2 | 101 |
| CC1(C)CCN(Cc2cc(F)c(N3CC(=O)NC4(CCN(c5cc(NCC6CCN(C(=O)CN7CCN(c8cccc9c8C(=O)N(C8CCC(=O)NC8=O)C9=O)CC7)CC6)ncn5)CC4)C3)cc2F)CC1 (centres unmarked) [Compound 35] |  | 0.7 ± 0.2 | 20 ± 0 nM |  | 21% and 21 ± 11% | 25 ± 3% |  |  |  |  | 105 |
